In patent publication EP4624466A1, “DEGRADER FOR DECOMPOSING CMET PROTEIN, AND PHARMACEUTICAL COMPOSITION COMPRISING SAME” (Innocure Therapeutics, Inc., priority 2022, dated 2024):
Read-outs that look alike come from different tables or passages of the source.

Columns and labels:
MKN-45 = experiment: Cell viability / antiproliferative assay (WST-8), MKN-45; conditions: read-out: MKN-45 IC50;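 note: MKN-45 is a human gastric cancer line overexpressing c-MET, growth inhibition read as WST-8 formazan absorbance at 450 nm after 2 h dye incubation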
Procedure: c-MET overexpressing human gastric cancer cell lines [MKN45] and [SNU638] were cultured in RPMI medium with 10% fetal bovine serum, penicillin (100U/ml), and streptomycin (100mg/ml), and c-MET exon 14 skipping mutant human gastric cancer cell lines [Hs746T] were cultured in DMEM media. The c-MET overexpressing human lung cancer cell line EBC-1 was cultured in MEM media with the addition of 10% fetal bovine serum, penicillin (100U/ml), and streptomycin (100mg/ml). […] The compound synthesized in accordance with the present invention was prepared with a raw material solution of 10 mM dissolved in DMSO (dimethyl sulfoxide), and was sequentially diluted and processed.
In order to observe the inhibitory activity on cell growth, cells were dispensed in a 96-well plate at a concentration of 5,000 cells/well, and then treated with the compound prepared at various concentrations for 72 hours. The viability of the cells was calculated using GraphicPad Prism 8.0 software by adding 10 ml per well of WST-8 (water soluble tetrazolium salt) sample, which reacts with dehydrogenase present in the electron transport system of mitochondria to produce formazon, incubated for 2 hours, and measured absorbance at 450 nm.

c-MET = c-MET (Homo sapiens, UniProt P08581); experiment: c-MET protein degradation (Simple Western), MKN-45; format: cell-based; design: assess the resolution of the compound of the present invention for c-MET expressed in cells; endogenous in cells; host or cells: MKN45 (human gastric cancer); conditions: c-MET overexpressing gastric cancer cell line MKN-45, treated 24 hours; Table 2
Sequence of c-MET (P08581 25-1390): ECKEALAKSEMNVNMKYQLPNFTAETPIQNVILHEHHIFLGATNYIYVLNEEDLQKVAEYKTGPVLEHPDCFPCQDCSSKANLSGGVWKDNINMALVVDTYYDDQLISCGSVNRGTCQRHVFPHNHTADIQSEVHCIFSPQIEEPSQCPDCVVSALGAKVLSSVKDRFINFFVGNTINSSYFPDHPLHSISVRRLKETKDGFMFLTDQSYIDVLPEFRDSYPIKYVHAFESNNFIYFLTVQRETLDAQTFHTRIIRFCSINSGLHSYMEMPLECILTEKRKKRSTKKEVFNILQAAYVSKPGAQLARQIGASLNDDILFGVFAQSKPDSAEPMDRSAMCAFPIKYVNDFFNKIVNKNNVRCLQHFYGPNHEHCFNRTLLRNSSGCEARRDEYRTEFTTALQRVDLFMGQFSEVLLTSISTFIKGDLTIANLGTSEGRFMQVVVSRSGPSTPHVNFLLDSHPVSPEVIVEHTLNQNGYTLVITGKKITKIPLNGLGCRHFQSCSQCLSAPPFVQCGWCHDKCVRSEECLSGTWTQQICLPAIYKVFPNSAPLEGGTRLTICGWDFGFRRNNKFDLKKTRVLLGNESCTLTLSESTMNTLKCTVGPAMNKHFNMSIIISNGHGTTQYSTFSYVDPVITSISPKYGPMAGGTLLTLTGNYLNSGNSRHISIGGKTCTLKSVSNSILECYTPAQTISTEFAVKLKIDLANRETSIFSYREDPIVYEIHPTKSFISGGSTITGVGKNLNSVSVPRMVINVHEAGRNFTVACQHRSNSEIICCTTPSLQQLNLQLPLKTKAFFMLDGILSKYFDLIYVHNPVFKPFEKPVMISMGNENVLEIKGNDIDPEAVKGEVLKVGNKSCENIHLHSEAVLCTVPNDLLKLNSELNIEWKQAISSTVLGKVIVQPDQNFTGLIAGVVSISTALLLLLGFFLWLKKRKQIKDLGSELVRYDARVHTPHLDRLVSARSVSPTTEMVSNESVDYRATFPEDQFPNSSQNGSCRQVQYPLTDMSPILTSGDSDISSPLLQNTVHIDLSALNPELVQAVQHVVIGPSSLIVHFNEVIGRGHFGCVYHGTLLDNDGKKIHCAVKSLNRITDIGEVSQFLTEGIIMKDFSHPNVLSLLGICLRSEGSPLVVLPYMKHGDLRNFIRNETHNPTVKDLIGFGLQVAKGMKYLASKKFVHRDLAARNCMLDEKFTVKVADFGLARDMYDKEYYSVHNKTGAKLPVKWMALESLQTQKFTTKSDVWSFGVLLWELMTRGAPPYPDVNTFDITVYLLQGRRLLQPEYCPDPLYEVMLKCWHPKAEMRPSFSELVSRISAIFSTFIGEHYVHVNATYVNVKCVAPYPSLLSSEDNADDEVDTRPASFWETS
Procedure: In order to assess the resolution of the compound of the present invention for c-MET expressed in cells, cells were dispensed in a 12-well plate at a concentration of 2 × 10^5 cells/well, and then gastric cancer cell lines were treated with samples for 24 hours and lung cancer cell lines were treated for 48 hours. Cell lysates were collected using a scraper on ice, centrifuged at 4°C15,000 rpm for 30 min to obtain a protein-containing supernatant. Protein expression was then measured using the Simple Western Automated Western Blot System Abby instrument using 3 µg of protein for each sample. SDS and heat-induced denaturation proteins were separated by molecular weight, attached to capillary, reacted with anti-c-MET or anti-GAPDH antibodies, which are primary antibodies, and then reacted with HRP-conjugated secondary antibodies, and analyzed the protein expression signal with compass software. Protein expression was normalized based on the expression value of GAPDH, and protein development in each sample was measured as a percentage (%) based on 100% of samples treated with 0.1% DMSO carriers, and DC50 (concentration of a compound where 50% protein inhibition is achieved) was calculated from the change in protein expression amount due to compound treatment.

[1] = MKN-45 cells, 72 hours, WST-8, Table 1

Structure (SMILES) | IC50 (MKN-45; Homo sapiens, MKN-45, 72 h) [nM] | DC50 (c-MET) [nM] | IC50 (MKN-45; [1]) [nM]
Cc1nn(C2CCC(=O)NC2=O)c(=O)c2ccc(N3CCO[C@H](CN4CCN(CC(=O)N5CCC(COc6cnc(-c7cccc(Cn8nc(-c9cccc(C#N)c9)ccc8=O)c7)nc6)CC5)CC4)C3)cc12 (some centres unmarked) [ICT-0001229] | < 100 | < 100 | 
Cc1nn(C2CCC(=O)NC2=O)c(=O)c2ccc(N3CCN(C(=O)CN4CCC(COc5cnc(-c6cccc(Cn7nc(-c8cccc(C#N)c8)ccc7=O)c6)nc5)CC4)CC3)cc12 (centres unmarked) [ICT-0001177, 3-(1-{[3-(5-{[1-(2-{4-[2-(2,6-dioxopiperidin-3-yl)-4-methyl-1-oxo-1,2-dihydropthalazine-6-yl]piperazine-1-yl}-2-oxoethyl)piperidine-4-yl]methoxy}pyrimidine-2-yl)phenyl]methyl}-6-oxo-1,6-dihydropyridazine-3-yl)benzonitrile] | < 100 | < 100 | 
Cn1cc(-c2cnc3c(nnn3C[C@@H]3CN(c4ncc(-c5ccc(CN6CCN(C(=O)CCOCCOCCOCCOCCNc7cccc8cnn(C9CCC(=O)NC9=O)c(=O)c78)CC6)cc5)cn4)CCO3)n2)cn1 (stereo partly drawn) [ICT-0000946, 3-[8-(16-{4-[(4-{2-[(2S)-2-{[5-(1-methyl-1H-pyrazole-4-yl)-1H-[1,2,3]triazolo[4,5-b]pyrazine-1-yl]methyl}morpholine-4-day]pyrimidine-5-yl}phenyl)methyl]piperazine-1-yl}-16-oxo-4,7,10,13-tetraoxa-1-azahexadecane-1-yl)-1-oxo-1,2-dihydroptalazine-2-yl]piperidine-2,6-dione] |  |  | 100 to 1000
N#Cc1cccc(-c2ccc(=O)n(Cc3cccc(-c4ncc(OCC5CCN(C(=O)CCCCCCNc6ccc7c(=O)n(C8CCC(=O)NC8=O)ncc7c6)CC5)cn4)c3)n2)c1 (centres unmarked) [ICT-0000985, 3-(1-{[3-(5-{[1-(7-{[2-(2,6-dioxopiperidin-3-yl)-1-oxo-1,2-dihydropthalazine-6-yl]amino}heptanoyl)piperidine-4-il]methoxy}pyrimidine-2-yl)phenyl]methyl}-6-oxo-1,6-dihydropyridazine-3-yl)benzonitrile] | < 100 | < 100 | 
Cc1nn(C2CCC(=O)NC2=O)c(=O)c2ccc(N3CCN(CC4CN(CC(=O)N5CCC(COc6cnc(-c7cccc(Cn8nc(-c9cccc(C#N)c9)ccc8=O)c7)nc6)CC5)C4)CC3)cc12 (centres unmarked) [ICT-0001253] | < 100 | < 100 | 
N#Cc1cccc(-c2ccc(=O)n(Cc3cccc(-c4ncc(OCC5CCN(C(=O)CCCN6CCN(c7ccc8c(=O)n(C9CCC(=O)NC9=O)ncc8c7)CC6)CC5)cn4)c3)n2)c1 (centres unmarked) [ICT-0001200] | < 100 | < 100 | 
Cc1nn(C2CCC(=O)NC2=O)c(=O)c2cc(N3CCC(C(=O)NCCCNC(=O)CN4CCC(COc5cnc(-c6cccc(Cn7nc(-c8cccc(C#N)c8)ccc7=O)c6)nc5)CC4)CC3)ccc12 (centres unmarked) [ICT-0001238] |  | > 1000 | 
Cn1cc(-c2cnc3c(nnn3C[C@@H]3CN(c4ncc(-c5ccc(CN6CCN(C(=O)CCOCCOCCOCCOCCOCCOCCNc7cccc8cnn(C9CCC(=O)NC9=O)c(=O)c78)CC6)cc5)cn4)CCO3)n2)cn1 (some centres unmarked) [ICT-0000968] |  |  | 100 to 1000
N#Cc1cccc(-c2ccc(=O)n(Cc3cccc(-c4ncc(OCC5CCN(C(=O)CCCCCNc6ccc7c(=O)n(C8CCC(=O)NC8=O)ncc7c6)CC5)cn4)c3)n2)c1 (centres unmarked) [ICT-0000984, 3-(1-{[3-(5-{[1-(6-{[2-(2,6-dioxopiperidin-3-yl)-1-oxo-1,2-dihydropthalazine-6-yl]amino}hexanoyl)piperidine-4-il]methoxy}pyrimidine-2-yl)phenyl]methyl}-6-oxo-1,6-dihydropyridazine-3-yl)benzonitrile] | < 100 |  | 
Cn1cc(-c2cnc3c(nnn3C[C@@H]3CN(c4ncc(-c5ccc(CN6CCN(C(=O)CCCCCNc7cccc8cnn(C9CCC(=O)NC9=O)c(=O)c78)CC6)cc5)cn4)CCO3)n2)cn1 (stereo partly drawn) [ICT-0000970, 3-(8-((6-(4-(4-(2-((S)-2-((5-(1-methyl-1H-pyrazole-4-yl)-1H-[1,2,3]triazolo[4,5-b]pyrazine-1-yl)methyl)morpholino)pyrimidine-5-yl)benzyl)piperazine-1-yl)6-oxohexyl)amino)1-oxopthalazine-2(1H)-yl)piperidine-2,6-dione] |  |  | < 100
Cn1cc(-c2cnc3c(nnn3C[C@@H]3CN(c4ncc(-c5ccc(CN6CCN(C(=O)COCCOCCOCCNc7cccc8cnn(C9CCC(=O)NC9=O)c(=O)c78)CC6)cc5)cn4)CCO3)n2)cn1 (stereo partly drawn) [ICT-0000942, 3-[8-(12-{4-[(4-{2-[(2S)-2-{[5-(1-methyl-1H-pyrazole-4-yl)-1H-[1,2,3]triazolo[4,5-b]pyrazine-1-yl]methyl}morpholine-4-day]pyrimidine-5-yl}phenyl)methyl]piperazine-1-il}-12-oxo-4,7,10-trioxa-1-azadodecane-1-yl)-1-oxo-1,2-dihydroptalazine-2-yl]piperidine-2,6-dione] |  |  | < 100
Cc1nn(C2CCC(=O)NC2=O)c(=O)c2ccc(N3CCN(c4ccc(NCC(=O)N5CCC(COc6cnc(-c7cccc(Cn8nc(-c9cccc(C#N)c9)ccc8=O)c7)nc6)CC5)cc4)CC3)cc12 (centres unmarked) [ICT-0001240, 3-(1-(3-(5-((1-((4-(4-(2-(2,6-dioxopiperidin-3-yl)-4-methyl-1-oxo-1,2-dihydropthalazine-6-yl)piperazine-1-yl)phenyl)glycyl)piperidine-4-il)methoxy)pyrimidine-2-yl)benzyl)6-oxo-1,6-dihydropyridazine-3-yl)benzonitrile] | < 100 |  | 
Cc1nn(C2CCC(=O)NC2=O)c(=O)c2ccc(N3CCN(CC4CCN(CC(=O)N5CCC(COc6cnc(-c7cccc(Cn8nc(-c9cccc(C#N)c9)ccc8=O)c7)nc6)CC5)CC4)CC3)cc12 (centres unmarked) [ICT-0001256] |  | < 100 | 
Cn1cc(-c2cnc3c(nnn3C[C@@H]3CN(c4ncc(-c5ccc(CN6CCN(C(=O)COCCOCCOCCOCCOCCNc7cccc8cnn(C9CCC(=O)NC9=O)c(=O)c78)CC6)cc5)cn4)CCO3)n2)cn1 (stereo partly drawn) [ICT-0000967, 3-(8-((17-(4-(4-(2-((S)-2-((5-(1-methyl-1H-pyrazole-4-yl)-1H-[1,2,3]triazolo[4,5-b]pyrazine-1-yl)methyl)morpholino)pyrimidine-5-yl)benzyl)piperazine-1-yl)17-oxo-3,6,9,12,15-pentaheptacel)amino)-1-oxopthalazine-2(1H)-yl)piperidine-2,6-dione] |  |  | 100 to 1000
N#Cc1cccc(-c2ccc(=O)n(Cc3cccc(-c4ncc(OCC5CCN(C(=O)CCOCCOCCOCCOCCNc6cccc7cnn(C8CCC(=O)NC8=O)c(=O)c67)CC5)cn4)c3)n2)c1 (centres unmarked) [ICT-0000907] | < 100 |  | 
Cc1nn(C2CCC(=O)NC2=O)c(=O)c2ccc(NCCCC(=O)N3CCC(COc4cnc(-c5cccc(Cn6nc(-c7cccc(C#N)c7)ccc6=O)c5)nc4)CC3)cc12 (centres unmarked) [ICT-0000989] | < 100 |  | 
Cc1nn(C2CCC(=O)NC2=O)c(=O)c2cc(N3CCN(C(=O)CN4CCC(COc5cnc(-c6cccc(Cn7nc(-c8cccc(C#N)c8)ccc7=O)c6)nc5)CC4)CC3)ccc12 (centres unmarked) [ICT-0001115, 3-(1-(3-(5-((1-(2-(4-(3-(2,6-dioxopiperidin-3-yl)-1-methyl-4-oxo-3,4-dihydropetalazine-6-yl)piperazine-1-yl)2-oxoethyl)piperidine-4-il)methoxy)pyrimidine-2-yl)benzyl)6-oxo-1,6-dihydropyridazine-3-yl)benzonitrile] |  | < 100 | 
Cn1cc(-c2cnc3c(nnn3C[C@@H]3CN(c4ncc(-c5ccc(CN6CCN(C(=O)CCOCCOCCNc7cccc8cnn(C9CCC(=O)NC9=O)c(=O)c78)CC6)cc5)cn4)CCO3)n2)cn1 (some centres unmarked) [ICT-0000940] | 100 to 1000 |  | 
